# Data published in patent US20050208029A1, “Method of forming pancreatic beta cells from mesenchymal cells” (priority 2002, published 2005).
# Tested on: KUSA/A1 cells
# Assay: Insulin concentration (ELISA) in supernatant of KUSA/A1 cells cultured 12 days with or without bFGF
# Assay type: cell-based, mouse
# Conditions: 2 h after 25.0 mM glucose
# Description: The KUSA/A1 cells obtained in Example 1 were treated with trypsin and transferred to a 6-well dish (product of Falcon) so that the cell density might become as low as possible.
# The cells were cultured in serum-free DMEM containing insulin, transferrin, progesterone, putrescine and selenium or in DMEM containing 10% FBS at 33° C. for 12 days using an incubator with a CO2 concentration of 5%.
# bFGF (recombinant human basic fibroblast growth factor; product of R&D) was added to each of the serum-free or serum-containing wells to a final concentration of 10 ng/ml. Hereafter, unless otherwise specified, cell culture was carried out under the same conditions while medium exchange was conducted at 2-day intervals.
# After 12 days of cultivation, the medium in each well was discarded, the cells in each well were washed repeatedly with three portions of PBS. After washing, 2 ml of PBS was added to each well afresh, and cultivation was performed at 33° C. for 2 hours using an incubator with a CO2 concentration of 5%.
# After 2 hours of cultivation, the PBS was discarded, 2 ml of DMEM containing 25.0 mM glucose was added afresh, and cultivation was performed at 33° C. for further 2 hours using an incubator with a CO2 concentration of 5%. […]
substance,measurement,setting,value
bFGF: recombinant human basic fibroblast growth factor; product of R&D; used as pancreatic β cell forming agent,insulin detected in the supernatant,"DMEM containing bFGF (10 ng/ml) and 10% FBS, below assay sensitivity limit",below 39 pg/mL
same,insulin detected in the supernatant,"serum-free DMEM containing bFGF (10 ng/ml), insulin, transferrin, progesterone, putrescine and selenium",223 pg/mL
